Paper PMC11990383, “Structure Determination of Tegoprazan((S)-4-((5,7-difluorochroman-4-yl)oxy)-N,N,2-trimethyl-1H-benzo[d]imidazole-6-formamide) Polymorphs A and B by Laboratory X-Ray Powder Diffraction” (Molecules, 2025)
Values after ≈ are worked out from the molar mass of the structure shown. Where two headings read alike, the source gives them in different places.

Legend:
[1] = Equilibrium solubility in water, potentiometric (pH-metric) CheqSol method; type: physicochemical; conditions: for solubility: thermodynamic from solid, read-out: equilibrium concentration (solubility, S)
Protocol: Solubility (S) measurements were conducted in water using the CheqSol system at five temperatures: 15 °C, 25 °C, 35 °C, 45 °C, and 55 °C. However, due to the hydrolytic instability of Tegoprazan at elevated temperatures and the pH-dependent nature of the CheqSol assay, reliable measurements could only be obtained at 15 °C and 25 °C. Based on the equilibrium solubility values at these two temperatures, the enthalpy of solution (ΔHsol) was estimated for each polymorph using van’t Hoff plots of ln(S) versus 1/T.
Solubility measurements were performed using the potentiometric (pH-metric) method with the CheqSol system (T3, Sirius Analytical Instruments Ltd., Portsmouth, UK). Unlike pKa determinations, solubility assays require relatively high sample concentrations to ensure saturation across a broad pH range (typically, pH 2 to 12). In this method, the solution is intentionally brought into a supersaturated state to establish “crossing points,” from which the intrinsic (equilibrium) solubility is calculated based on the concentration of the neutral species predominating at specific pH levels. The high initial concentration of the sample promotes supersaturation, leading to precipitation at pH values corresponding to the compound’s pKa. This onset of precipitation reflects the kinetic solubility, which can be characterized by various physicochemical parameters, including the pKa value, saturated pH, sample concentration, temperature, and crystallinity. This study aimed to investigate the temperature dependence of solubility for Polymorphs A and B. Measurements were conducted at five temperatures: 15 °C, 25 °C, 35 °C, 45 °C, and 55 °C.

[2] = Stability of polymorphs under accelerated conditions, followed by DSC and XRD; type: physicochemical; conditions: 40 ± 2 °C, relative humidity 75 ± 5 %, 8-week period; changes seen in the eighth week
Protocol: As a case in point, the stability of the two Tegoprazan polymorphs was evaluated under accelerated conditions (temperature: 40 ± 2 °C, relative humidity: 75 ± 5 HR%) over an 8-week period, with observations for any significant changes conducted using DSC (Differential Scanning Calorimetry) and XRD (X-ray diffraction). […] Therefore, it is essential to elucidate the details of this phenomenon. For quantitative phase analysis and similar studies, knowledge of the crystal structure is crucial. However, the crystal structures of Polymorphs A and B remain unresolved. In response to this need, we explored a practical approach to crystal structure analysis by utilizing readily available powder samples, laboratory-scale XRD instruments, and cost-efficient Rietveld refinement software specifically EXPO2014 (expo version 1.22.11). The known method of SDPD (Structure Determination from Powder Diffraction) was considered as one potential solution to address these challenges. While X-ray diffraction often utilizes synchrotron radiation or other advanced accelerator-based facilities, the crystal structures of Tegoprazan Polymorphs A and B were analyzed using laboratory-based X-ray diffraction (XRD) equipment and powdered samples. This approach was chosen for the following reasons: […]

| solubility ([1]; 15 °C, 15 °C) | solubility ([1]; 25 °C, 25 °C) | solid-state stability (changes by DSC and XRD) [2] | equilibrium concentration (solubility, S) ([1]; 15 °C) | equilibrium concentration (solubility, S) ([1]; 25 °C) | Structure (SMILES) |
| --- | --- | --- | --- | --- | --- |
| 1250 µM (≈ 483 µg/mL) | 1440 µM (≈ 557 µg/mL) | No changes | – | – | Cc1nc2c(OC3CCOc4cc(F)cc(F)c43)cc(C(=O)N(C)C)cc2[nH]1 [Polymorph A, (S)-4-((5,7-difluorochroman-4-yl)oxy)-N,N,2-trimethyl-1H-benzo[d]imidazole-6-formamide] |
| – | – | phase transition to Polymorph A | 1476 µM | 2118 µM | Cc1nc2c(OC3CCOc4cc(F)cc(F)c43)cc(C(=O)N(C)C)cc2[nH]1 [Polymorph B, (S)-4-((5,7-difluorochroman-4-yl)oxy)-N,N,2-trimethyl-1H-benzo[d]imidazole-6-formamide] |
